The values below come from patent US11053238B2, “Benzimidazole derivatives, preparation methods and uses thereof” (BETTA PHARMACEUTICALS CO., LTD, priority 2016, dated 2021).

Read-outs that look alike come from different tables or passages of the source.

One data set concerns the target CDK2/cyclin E (Homo sapiens (Human), UniProt P24941). Nature of the data set: 33P-ATP radiometric CDK kinase inhibitory activity and selectivity test. It is filed as biochemical. An excerpt: (§1) The mechanism of this method is shown in formula (II).
(§2) Data was processed with Prism4 Software (GraphPad), and the curve fitting formula was:
(§3) Y=Bottom+(Top−Bottom)/(1+10^((Log IC50−X)*HillSlope)); wherein, Y is percent inhibition (%); X is logarithm of concentration of the inhibitor.

The target of a further data set is CDK9/cyclin T1 (Homo sapiens (Human), UniProt P50750). The data set is described as above. Type of data set: biochemical.
Source text: as §1, §2, §3

Another data set has as its system JeKo-1 cells. Nature of the data set: Tumor regression effect on JeKo-1 xenograft animal model. Type of data set: in vivo, NOD/SCID mice. As to conditions: 10-100 mg/kg orally once a day, 19 days. As for the experimental part: JeKo-1 cells were cultured in RPMI 1640 medium containing 20% fetal bovine serum. Exponentially growing JeKo-1 cells were collected and resuspended in PBS to a suitable concentration for NOD/SCID mice subcutaneous tumor inoculation. Seventy female mice were inoculated subcutaneously on the right with 5×10^6 JeKo-1 cells, resuspended in PBS and matrigel (1:1). When the average tumor volume reached 134 mm^3, the mice were randomly grouped according to the size of the tumor and were administrated. Forty-eight mice were divided into the experimental group, and the remaining twenty-two mice were not used for experiment. Tumor volume is calculated as: long diameter×short diameter^2/2. […] Efficacy is evaluated according to the relative tumor growth inhibition rate of TGI.
The higher the TGI (%) value illustrates the better the potency; and vice versa.

For data set [1] the following is noted: BALB/c mice, 200 mg/kg (qd); for observation (mortality) / Body weight (weight loss) / weight loss (in words): oral gavage; for Body weight (weight loss): vs vehicle control; for mice death in each group (6 mice): after treatment for 2 weeks.
The target in another data set is CDK2/CycA2 (Homo sapiens (Human), UniProt P24941). Briefly: CDK kinase assay (Caliper, FAM-labeled peptide).
The test system of data set [2] is Human colorectal cancer cells (colo-205). Nature of the data set: MTS cell viability assay (cell proliferation). It is filed as cell-based. The following applies: colo-205 cells, 7 days of exposure. As for the experimental part:
Effects of test compounds on in vitro proliferation were measured by MTS cell viability assay.
Human colorectal cancer cells (colo-205) is expanded in culture (colo-205 is grown in DMEM media with 12% FBS, 1% P/S, and 1% L-glutamine).
MTS Cell Viability Assay:
1. Seed cells at density of 4×10^3 cells per well of 96-wells plates, grow for 24 h;
2. Add varying concentrations of test compounds to the cells;
3. Incubate for 7 days of exposure;
4. Prepare reagents following the instructions in the Cell Proliferation Assay kit (Promega);
5. Change to serum-free medium with a final volume of 100 μl/well. Prepare a set of wells with medium only for background subtraction;
6. Add 20 μl MTS solution containing PMS to each well (final concentration of MTS will be 0.33 mg/mL);
7. Incubate 1 to 4 h at 37° C. in a humidified, 5% CO2 atmosphere;
8. Record absorbance at 490 nm using VICTOR™ X5 plate reader (PerkinElmer).
All experimental points were set up in three wells and all experiments were repeated at least three times.

A further data set deals with CDK4/CycD3 (Homo sapiens (Human), UniProt P11802). Nature of the data set: CDK kinase assay (Caliper, FAM-labeled peptide).
The target in a further data set is CDK6/cycD3 (Homo sapiens (Human), UniProt Q00534). Briefly: CDK kinase assay (Caliper, FAM-labeled peptide). The following applies: read-out: IC50(CDK6); CDK6/cycD3, ATP 800 μM.
The mark [3] stands for this setting: 33P-ATP, P81 membrane, read-out: CDK kinase inhibitory activity IC50, CDK2/cyclin E.
The mark [4] stands for this setting: text summary for CDK1/2/7/9, read-out: IC50 for inhibiting CDK2.
Setting [5] is: 33P-ATP, P81 membrane, read-out: CDK kinase inhibitory activity IC50, CDK9/cyclin T1.
The mark [6] stands for this setting: text summary for CDK1/2/7/9, read-out: IC50 for inhibiting CDK9.
[7] abbreviates: IC50(CDK4), head-to-head comparison of substituent site, class symbols.

Chain of CDK4/CycD3 (P11802 whole entry, species assumed): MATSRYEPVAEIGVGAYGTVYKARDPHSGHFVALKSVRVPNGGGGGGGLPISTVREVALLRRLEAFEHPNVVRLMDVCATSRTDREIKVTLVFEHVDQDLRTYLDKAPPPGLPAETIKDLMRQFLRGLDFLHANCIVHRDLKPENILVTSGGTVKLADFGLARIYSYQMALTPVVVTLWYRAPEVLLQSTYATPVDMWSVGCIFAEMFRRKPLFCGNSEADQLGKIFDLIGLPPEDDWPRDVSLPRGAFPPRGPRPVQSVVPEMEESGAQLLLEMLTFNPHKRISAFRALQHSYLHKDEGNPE
Chain of CDK4/CycD3 (P30281 whole entry partner, species assumed): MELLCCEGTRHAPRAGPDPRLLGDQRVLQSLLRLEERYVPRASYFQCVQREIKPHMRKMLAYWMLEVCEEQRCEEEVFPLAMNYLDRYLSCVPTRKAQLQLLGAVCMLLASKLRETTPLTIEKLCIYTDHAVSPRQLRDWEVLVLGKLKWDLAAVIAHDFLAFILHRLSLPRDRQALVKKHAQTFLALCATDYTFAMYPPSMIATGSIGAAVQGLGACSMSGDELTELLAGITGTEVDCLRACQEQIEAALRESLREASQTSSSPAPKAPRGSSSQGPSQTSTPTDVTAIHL
Chain of CDK9/cyclin T1 (P50750 whole entry, species assumed): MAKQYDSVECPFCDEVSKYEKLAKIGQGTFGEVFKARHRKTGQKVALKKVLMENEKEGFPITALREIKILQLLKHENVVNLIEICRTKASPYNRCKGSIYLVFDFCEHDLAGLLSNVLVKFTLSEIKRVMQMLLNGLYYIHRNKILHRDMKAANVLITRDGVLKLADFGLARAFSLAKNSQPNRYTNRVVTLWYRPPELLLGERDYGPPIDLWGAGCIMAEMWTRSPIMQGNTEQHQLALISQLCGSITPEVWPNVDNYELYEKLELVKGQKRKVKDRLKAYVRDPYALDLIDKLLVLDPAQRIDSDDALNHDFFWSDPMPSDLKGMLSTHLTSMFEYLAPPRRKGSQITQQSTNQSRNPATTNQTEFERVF
Chain of CDK9/cyclin T1 (O60563 whole entry partner, species assumed): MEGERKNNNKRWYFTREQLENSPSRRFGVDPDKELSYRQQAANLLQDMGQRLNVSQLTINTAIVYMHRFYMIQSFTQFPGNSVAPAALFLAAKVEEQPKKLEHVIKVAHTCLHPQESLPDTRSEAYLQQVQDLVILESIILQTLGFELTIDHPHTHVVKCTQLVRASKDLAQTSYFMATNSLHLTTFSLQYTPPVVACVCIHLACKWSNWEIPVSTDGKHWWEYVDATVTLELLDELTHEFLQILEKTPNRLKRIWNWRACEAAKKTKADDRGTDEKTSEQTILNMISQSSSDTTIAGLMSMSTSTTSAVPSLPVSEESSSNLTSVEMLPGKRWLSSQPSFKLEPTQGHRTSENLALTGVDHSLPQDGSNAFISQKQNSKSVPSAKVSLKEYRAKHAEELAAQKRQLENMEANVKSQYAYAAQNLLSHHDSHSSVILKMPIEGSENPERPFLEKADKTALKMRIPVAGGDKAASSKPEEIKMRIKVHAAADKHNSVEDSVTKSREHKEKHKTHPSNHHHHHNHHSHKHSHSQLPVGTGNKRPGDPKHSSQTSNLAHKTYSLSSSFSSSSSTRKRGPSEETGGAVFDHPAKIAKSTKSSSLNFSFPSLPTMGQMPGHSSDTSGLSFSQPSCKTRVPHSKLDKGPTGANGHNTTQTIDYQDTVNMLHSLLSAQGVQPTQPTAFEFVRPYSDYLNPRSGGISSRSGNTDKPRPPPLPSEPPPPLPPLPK
Chain of CDK6/cycD3 (Q00534 whole entry, species assumed): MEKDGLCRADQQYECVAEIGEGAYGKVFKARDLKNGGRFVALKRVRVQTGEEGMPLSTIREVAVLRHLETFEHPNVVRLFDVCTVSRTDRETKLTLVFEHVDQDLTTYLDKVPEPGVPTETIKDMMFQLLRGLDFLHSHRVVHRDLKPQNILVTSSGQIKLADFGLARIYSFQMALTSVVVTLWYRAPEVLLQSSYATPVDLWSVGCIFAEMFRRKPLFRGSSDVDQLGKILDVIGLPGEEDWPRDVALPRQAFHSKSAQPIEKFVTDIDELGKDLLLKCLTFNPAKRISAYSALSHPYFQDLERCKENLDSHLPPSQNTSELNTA
Chain of CDK6/cycD3 (P30281 whole entry partner, species assumed): as the sequence (P30281 whole entry partner, species assumed) above

With `CCN1CCN(Cc2ccc(Nc3ncc(F)c(-c4cc(F)c5nc6n(c5c4)C(C)CCC6)n3)nc2)CC1` (single isomer, unassigned) [Compound 2a, N-(5-((4-ethylpiperazin-1-yl)methyl)pyridin-2-yl)-5-fluoro-4-(6-fluoro-1-methyl-1,2,3,4-tetrahydrobenzo[4,5]imidazo[1,2-a]pyridin-8-yl)pyrimidin-2-amine], the IC50 on CDK2/cyclin E (setting [3]) is 596 nM; on CDK2/cyclin E (setting [4]), > 400 nM; at CDK9/cyclin T1 (setting [5]), 779 nM; at CDK9/cyclin T1 (setting [6]), > 400 nM.

On to `CCN1CCN(Cc2ccc(Nc3ncc(F)c(-c4cc(F)c5nc6n(c5c4)C(C)CCC6)n3)nc2)CC1` (single isomer, unassigned) [Compound 2b, N-(5-((4-ethylpiperazin-1-yl)methyl)pyridin-2-yl)-5-fluoro-4-(6-fluoro-1-methyl-1,2,3,4-tetrahydrobenzo[4,5]imidazo[1,2-a]pyridin-8-yl)pyrimidin-2-amine], for which the IC50 was 441 nM at CDK2/cyclin E (setting [3]), > 400 nM on CDK2/cyclin E (setting [4]), 649 nM at CDK9/cyclin T1 (setting [5]) and > 400 nM at CDK9/cyclin T1 (setting [6]). Moreover, the “anti-tumor activity (in words)” value in the data set with JeKo-1 cells is recorded as “excellent anti-tumor activity”. Also, the “observation (mortality)” value in data set [1] is listed as “−”. Further, the “Body weight (weight loss)” value in data set [1] is recorded as “* (weight loss less than 5%)”.

Consider `CCN1CCN(Cc2ccc(Nc3ncc(F)c(-c4cc(F)c5nc6n(c5c4)C(C)COC6)n3)nc2)CC1` (single isomer, unassigned) [Compound 16b, N-(5-((4-ethylpiperazin-1-yl)methyl)pyridin-2-yl)-5-fluoro-4-(9-fluoro-4-methyl-3,4-dihydro-1H-benzo[4,5]imidazo[2,1-c][1,4]oxazin-7-yl)pyrimidin-2-amine], for which, in data set [1], the “observation (mortality)” value is on record as “−” and the “Body weight (weight loss)” value is given as “* (weight loss less than 5%)”. Further, at CDK2/CycA2, the IC50 was > 300 nM.

Take `CN1CCN(c2ccc(Nc3ncc(F)c(-c4cc(F)c5nc6n(c5c4)C4(CCC6)CC4)n3)nc2)CC1` [Com. EX. 1, 5-fluoro-4-(6-fluoro-3,4-dihydro-2 H-spiro[benzo[4,5]imidazo,[1,2-a]pyridine-1,1′-cyclopropan]-8-yl)-N-(5-(4-methylpiperazin-1-yl)pyridin-2-yl)pyrimidin-2-amine]: the IC50 in data set [2] was found to be 6640 nM.

With `CN1CCN(c2ccc(Nc3ncc(F)c(-c4cc(F)c5nc6n(c5c4)CCCC6)n3)nc2)CC1` [Com. EX. 2, 5-fluoro-4-(6-fluoro-1,2,3,4-tetrahydrobenzo[4,5]imidazo[1,2-a]pyridin-8-yl)-N-(5-(4-methylpiperazin-1-yl)pyridin-2-yl)pyrimidin-2-amine], in data set [2], the IC50 was determined as 8900 nM.

For the molecule `CCN1CCN(Cc2ccc(Nc3ncc(F)c(-c4cc(F)c5nc6n(c5c4)[C@H](C(C)C)COC6)n3)nc2)CC1` [Com. EX. 3b, (R)-N-(5-((4-ethylpiperazin-1-yl)methyl)pyridin-2-yl)-5-fluoro-4-(9-fluoro-4-isopropyl-3,4-dihydro-1 H-benzo[4,5]imidazo[2,1-c][1,4]oxazin-7-yl)pyrimidin-2-amine], in data set [1], the “mice death in each group (6 mice)” value is 4; the “observation (mortality)” value was “+”; the “weight loss (in words)” value is on record as “much more weight loss”; the “Body weight (weight loss)” value was “*** (weight loss more than 10% and less than 30%)”.

Regarding `CC[C@@H]1COCc2nc3c(F)cc(-c4nc(Nc5ccc(CN6CCN(CC)CC6)cn5)ncc4F)cc3n21` [Com. EX. 4b, (R)-4-(4-ethyl-9-fluoro-3,4-dihydro-1H-benzo[4,5]imidazo[2,1-c][1, 4]oxazin-7-yl)-N-(5-((4-ethylpiperazin-l-yl)methyl)pyridin-2-yl)-5-f luoropyimidin-2-amine], in data set [1], the “mice death in each group (6 mice)” value came out at 5; the “observation (mortality)” value is “+”; the “weight loss (in words)” value is on record as “much more weight loss”; the “Body weight (weight loss)” value was “*** (weight loss more than 10% and less than 30%)”.

For the molecule `CC1(C)CCCc2nc3c(F)cc(-c4nc(Nc5ccc(N6CCN(C7COC7)CC6)cn5)ncc4F)cc3n21` [Com. EX. 5, 5-fluoro-4-(6-fluoro-1,1-dimethyl-1,2,3,4-tetrahydrobenzo[4,5]imidazo[1,2-a]pyridin-8-yl)-N-(5-(4-(oxetan-3-yl)piperazin-1-yl)pyridin-2-yl)pyrimidin-2-amine, reference compound], the IC50 at CDK2/CycA2 was 40 nM.

`CC1(C)CCCc2nc3c(F)cc(-c4nc(Nc5ccc(CN6CCNCC6)cn5)ncc4F)cc3n21` [Com. EX. 6, 5-fluoro-4-(6-fluoro-1,1-dimethyl-1,2,3,4-tetrahydrobenzo[4,5]imidazo[1,2-a]pyridin-8-yl)-N-(5-(piperazin-1-ylmethyl)pyridin-2-yl)pyri midin-2-amine, reference compound] had an IC50 on CDK2/CycA2 of 40 nM.

For `CC1CCCn2c1nc1c(F)cc(-c3ccnc(Nc4ccc(N5CCN(C)CC5)cn4)n3)cc12` (stereo not drawn) [Com. EX. No. 7, 4-(6-fluoro-4-methyl-1,2,3,4-tetra hydrobenzo[4,5]imidazo[1,2-a]pyridin-8-yl)-N-(5-(4-methylpiperazin-1-yl)pyridin-2-yl)pyrimidin-2-a mine], the figures for the IC50 at CDK4/CycD3 and on CDK6/cycD3 were 57 nM and 110 nM, respectively.

Molecule `CCN1CCN(Cc2ccc(Nc3ncc(F)c(-c4cc(F)c5nc6n(c5c4)CC(C)CC6)n3)nc2)CC1` (stereo not drawn) [Com. EX. No. 8, N-(5-((4-ethylpiperazin-1-yl)methyl)pyridin-2-yl)-5-fluoro-4-(6-fluoro-2-methyl-1,2,3,4-tetrahydrobenzo[4,5]imidazo[1,2-a]pyridin-8-yl) pyrimidin-2-amine] gave an IC50 on CDK4/CycD3 (setting [7]) of 1000 to 2000 nM.

As for `CCN1CCN(Cc2ccc(Nc3ncc(F)c(-c4cc(F)c5nc6n(c5c4)CCCC6C)n3)nc2)CC1` (stereo not drawn) [Com. EX. No. 10, N-(5((4-ethylpiperazin-l-yl)methyl)pyridin-2-yl)-5-fluoro-4-(6-fluoro-4-methyl-1,2,3,4-tetrahydrobenzo[4,5]imidazo[1,2-a]pyridin-8-yl) pyrimidin-2-amine], the IC50 on CDK4/CycD3 (setting [7]) was 1000 to 2000 nM.

Turning to `CC1CCCc2nc3c(F)cc(-c4ccnc(Nc5ccc(N6CCN(C)CC6)cn5)n4)cc3n21` (stereo not drawn) [Compound 1, 4-(6-fluoro-1-methyl-1,2,3,4-tetrahydrobenzo[4,5]imidazo[1,2-a]pyridin-8-yl)-N-(5-(4-methylpiperazin-1-yl)pyridin-2-yl)pyrimidin-2-amine], the IC50 in data set [2] is 78 nM; against CDK2/CycA2 it was > 300 nM.

Take `CCN1CCN(Cc2ccc(Nc3ncc(F)c(-c4cc(F)c5nc6n(c5c4)C(C)CCC6)n3)nc2)CC1` (stereo not drawn) [Compound 2, N-(5-((4-ethylpiperazin-1-yl)methyl)pyridin-2-yl)-5-fluoro-4-(6-fluoro-1-methyl-1,2,3,4-tetrahydrobenzo[4,5]imidazo[1,2-a]pyridin-8-yl)pyrimidin-2-amine]: the IC50 is 53 nM in data set [2]; 474 nM on CDK2/cyclin E (setting [3]); > 400 nM on CDK2/cyclin E (setting [4]); 572 nM at CDK9/cyclin T1 (setting [5]); > 400 nM at CDK9/cyclin T1 (setting [6]); > 300 nM against CDK2/CycA2. Besides, the “weight loss (in words)” value in data set [1] was “almost little weight loss”.

With `CCN1CCN(Cc2ccc(Nc3ncc(F)c(-c4cc(F)c5nc6n(c5c4)C(C)COC6)n3)nc2)CC1` (stereo not drawn) [Compound 16, N-(5-((4-ethylpiperazin-1-yl)methyl)pyridin-2-yl)-5-fluoro-4-(9-fluoro-4-methyl-3,4-dihydro-1H-benzo[4,5]imidazo[2,1-c][1,4]oxazin-7-yl)pyrimidin-2-amine], the “weight loss (in words)” value in data set [1] is reported as “almost little weight loss”.

The molecule `CCN1CCN(Cc2ccc(Nc3ncc(F)c(-c4cc(F)c5nc(C)n(C(C)C)c5c4)n3)nc2)CC1` [LY2835219, Abemaciclib] gave an IC50 in data set [2] of 136 nM. Moreover, the “observation (mortality)” value in data set [1] was “−”.
